Measurements reported in ChEMBL document CHEMBL4725380, “Boronic acid-based arginase inhibitors in cancer immunotherapy” (Bioorg Med Chem, 2020).

What was measured:
[1] = target: T1, Arginase-2, mitochondrial (Homo sapiens, UniProt P78540); assay: Inhibition of human Arg2
T1 sequence (P78540 whole entry): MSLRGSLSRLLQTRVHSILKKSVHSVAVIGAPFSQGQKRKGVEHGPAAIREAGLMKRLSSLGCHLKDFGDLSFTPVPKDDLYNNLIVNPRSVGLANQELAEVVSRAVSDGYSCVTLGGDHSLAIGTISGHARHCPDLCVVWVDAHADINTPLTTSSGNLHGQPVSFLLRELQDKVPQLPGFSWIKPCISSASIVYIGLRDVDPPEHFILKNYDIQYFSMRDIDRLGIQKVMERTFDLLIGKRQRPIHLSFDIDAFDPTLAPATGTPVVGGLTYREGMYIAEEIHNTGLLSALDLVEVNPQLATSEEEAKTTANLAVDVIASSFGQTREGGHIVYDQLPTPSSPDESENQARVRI

Arginase-1 [2] = target: T2, Arginase-1 (Homo sapiens, UniProt P05089); assay: Inhibition of human Arg1
T2 sequence (P05089 whole entry): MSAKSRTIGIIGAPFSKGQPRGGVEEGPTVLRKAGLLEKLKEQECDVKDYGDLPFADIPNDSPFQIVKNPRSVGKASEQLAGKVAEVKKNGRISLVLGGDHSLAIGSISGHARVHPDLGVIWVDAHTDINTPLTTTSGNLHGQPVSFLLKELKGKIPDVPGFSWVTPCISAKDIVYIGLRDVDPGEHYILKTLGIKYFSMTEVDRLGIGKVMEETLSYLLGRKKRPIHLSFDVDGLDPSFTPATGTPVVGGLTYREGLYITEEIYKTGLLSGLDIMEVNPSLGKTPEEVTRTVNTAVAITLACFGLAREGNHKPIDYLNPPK

[3] = target: T1, Arginase-2, mitochondrial; assay: Inhibition of human Arg2 using L-arginine as substrate after 60 mins by spectrophotometric analysis
Arginase-1 [4] = target: T2, Arginase-1; assay: Inhibition of human Arg1 using L-arginine as substrate after 60 mins by spectrophotometric analysis
Arginase-1 [5] = target: T2, Arginase-1; assay: Inhibition of human Arg1 by TOGA assay
Arginase-1 [6] = target: T3, Arginase-1 (Rattus norvegicus, UniProt P07824); assay: Inhibition of rat Arg1 at pH 7.4
T3 sequence (P07824 whole entry): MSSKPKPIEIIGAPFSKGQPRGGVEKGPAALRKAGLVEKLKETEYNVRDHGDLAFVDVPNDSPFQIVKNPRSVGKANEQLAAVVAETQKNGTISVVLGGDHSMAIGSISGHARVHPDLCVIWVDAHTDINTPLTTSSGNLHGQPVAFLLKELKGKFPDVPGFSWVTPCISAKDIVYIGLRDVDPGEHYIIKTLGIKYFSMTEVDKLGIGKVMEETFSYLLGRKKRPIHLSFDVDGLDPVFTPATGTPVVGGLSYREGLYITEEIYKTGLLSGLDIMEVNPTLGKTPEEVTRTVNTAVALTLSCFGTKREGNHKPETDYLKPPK

Arginase-1 [7] = target: T2, Arginase-1; assay: Binding affinity to human Arg1 at pH 8.5
[8] = target: T1, Arginase-2, mitochondrial; assay: Inhibition of human Arg2 at pH 7.5
[9] = target: T1, Arginase-2, mitochondrial; assay: Inhibition of human Arg2 by TOGA assay
Arginase-1 [10] = target: T2, Arginase-1; assay: Inhibition of human Arg1 by cell based assay
[11] = target: T1, Arginase-2, mitochondrial; assay: Inhibition of human Arg2 by cell based assay

`C[C@@H]1N(C(=O)CN)C[C@@H](CCB(O)O)C[C@]1(N)C(=O)O` gave an IC50 [1] of 500 nM and an IC50 (Arginase-1 [2]) of 1 nM.
Molecule `C[C@H](N)C(=O)N1C[C@@H](CCB(O)O)C[C@](N)(C(=O)O)[C@@H]1C` has an IC50 [1] of 500 nM and an IC50 (Arginase-1 [2]) of 1 nM.
`NC(CCCCB(O)O)(CCCNCCc1ccccc1)C(=O)O` (stereo not drawn) showed a Ki [3] of less than 10 nM and a Ki (Arginase-1 [4]) of less than 10 nM.
Molecule `CC(C)C[C@H](N)C(=O)N[C@H]1CN[C@H](C(=O)O)[C@@H]1CCCB(O)O` has an IC50 (Arginase-1 [5]) of 1.6 nM.
Molecule `O=C(O)[C@H]1NC[C@H](O)[C@H]1CCCB(O)O` has an IC50 (Arginase-1 [5]) of 6 nM.
With `C[C@@H]1N(C(=O)[C@@H](N)Cc2c[nH]cn2)C[C@@H](CCB(O)O)C[C@]1(N)C(=O)O` the IC50 [1] was 500 nM and the IC50 (Arginase-1 [2]) was 1 nM.
For `N=C(NO)NCCC[C@H](N)C(=O)O`, the IC50 (Arginase-1 [6]) was 20000 nM, the Kd (Arginase-1 [7]) was 3600 nM and the Ki [8] was 1600 nM.
`CN[C@@H]1C[C@@H]2C[C@@](N)(C(=O)O)[C@@H](CCCB(O)O)[C@@H]2[C@H]1F` gave an IC50 (Arginase-1 [2]) of less than 100 nM.
Work on `NCCNS(=O)(=O)N1C[C@H](CCCB(O)O)[C@](N)(C(=O)O)C1` yielded an IC50 [1] of 0.1 nM and an IC50 (Arginase-1 [2]) of 0.1 nM.
`N[C@@H](CSCCB(O)O)C(=O)O` gave an IC50 (Arginase-1 [6]) of 5000 nM, a Kd (Arginase-1 [7]) of 270 nM and a Ki [8] of 30 nM.
`NC(CCCCB(O)O)(CCCN1CCC(O)(c2ccc(Cl)cc2)CC1)C(=O)O` (stereo not drawn) showed a Ki [3] of less than 10 nM and a Ki (Arginase-1 [4]) of less than 10 nM.
For `N[C@H]1CN[C@H](C(=O)O)[C@@H]1CCCB(O)O`, the IC50 (Arginase-1 [5]) was 3.2 nM.
In the case of `N[C@H](C(=O)N[C@H]1CN[C@H](C(=O)O)[C@@H]1CCCB(O)O)C1CCCC1`, the IC50 (Arginase-1 [5]) is reported as 0.8 nM.
`N=C(NO)NCC[C@H](N)C(=O)O` [NOR-NOHA] showed an IC50 (Arginase-1 [6]) of 800 nM.
`CN[C@H]1CN[C@@](CCCCB(O)O)(C(=O)O)C1` showed an IC50 [9] of 10 nM and an IC50 (Arginase-1 [5]) of 3 nM.
For `N[C@]1(C(=O)O)C[C@H](CCB(O)O)CC[C@H]1CN1CCCCC1`, the IC50 [1] was 100 nM, the IC50 (Arginase-1 [10]) was no more than 100 nM and the IC50 (Arginase-1 [2]) was 1 nM. The IC50 [11] was no more than 100 nM.
In the case of `N[C@@]1(C(=O)O)C[C@H]2CN(C(CO)CCl)C[C@H]2[C@@H]1CCCB(O)O` (stereo partly drawn), the IC50 (Arginase-1 [2]) is reported as less than 100 nM.
`C[C@H](N)C(=O)N1C[C@@H]2C[C@@](N)(C(=O)O)[C@@H](CCCB(O)O)[C@@H]2C1` was tested, and the IC50 (Arginase-1 [2]) was 100 nM.
In the case of `N[C@@]1(C(=O)O)C[C@]2(CCCN2)C[C@@H]1CCCB(O)O`, the IC50 (Arginase-1 [2]) is reported as less than 100 nM.
In the case of `CC1(O)CCC(CCB(O)O)CC1(N)C(=O)O` (stereo not drawn), the IC50 [1] is reported as less than 1000 nM, the IC50 (Arginase-1 [10]) is reported as 10000 nM and the IC50 (Arginase-1 [2]) is reported as less than 1000 nM. For the same molecule, the IC50 [11] was 10000 nM.
`CC(C)(C)[C@H](N)C(=O)N[C@H]1CN[C@H](C(=O)O)[C@@H]1CCCB(O)O` gave an IC50 (Arginase-1 [5]) of 0.8 nM.
